Reference: patent US9770407B2 (Lundbeck Pharmaceuticals LLC, priority 2005, dated 2017)
Several values for one entry are separate records, joined by “and”; a condition that tells them apart may be missing. Identical values can stand only once.

Assay: Phase solubility of CBZ in aqueous Captisol and aqueous Cavitron
Type: physicochemical
Settings: for Measured CBZ conc: ambient laboratory temperature; for Measured CBZ conc, Ave: average of the three determinations
Description: The percent weight/volume cyclodextrin solutions were prepared by adding the appropriate amount of cyclodextrin to a flask and filling to the desired total volume (10 mL) with water, as shown in the following Table 4. An excess of carbamazepine was added to each eppendorf tube. Appropriate vehicles were added to each tube and the final volumes were 1 mL. The solubility of CBZ was determined at ambient laboratory temperatures in various concentrations of aqueous Captisol and aqueous Cavitron (brand names of modified cyclodextrins useful in the present invention). The drug substance was added to a microcentrifuge tube and the appropriate vehicle was added. Periodically, the samples were centrifuged and then an aliquot was removed from the supernatant, diluted as necessary and assayed by HPLC to determine the concentration. The phase solubility was evaluated at least three times during each experiment to insure that the mixture achieved equilibrium. […] The solubilities reported in Table 5 are the average of two or three concentration determinations obtained during the respective time course.

NC(=O)N1c2ccccc2C=Cc2ccccc21 [Carbamazepine, 5H-dibenz[b,f]azepine-5-carboxamide]
Measured CBZ conc (Captisol 0% w/v, CBZ source Orgamol): 0.2 mg/mL | Measured CBZ conc (Captisol 0% w/v, CBZ source Spectrum): 0.2 mg/mL | Measured CBZ conc, Ave (Captisol 0% w/v): 0.2 mg/mL | Measured CBZ conc (Captisol 5% w/v, CBZ source Orgamol, listed as CBZ): 2.2 mg/mL and 2.4 mg/mL | Measured CBZ conc (Captisol 5% w/v, CBZ source Spectrum): 2.4 mg/mL | Measured CBZ conc, Ave (Captisol 5% w/v): 2.3 mg/mL | Measured CBZ conc (Captisol 10% w/v, CBZ source Orgamol, listed as CBZ): 4.1 mg/mL and 4.6 mg/mL | Measured CBZ conc (Captisol 10% w/v, CBZ source Spectrum): 6.2 mg/mL | Measured CBZ conc, Ave (Captisol 10% w/v): 5.0 mg/mL | Measured CBZ conc (Captisol 15% w/v, CBZ source Orgamol, listed as CBZ): 6.4 mg/mL and 7.7 mg/mL | Measured CBZ conc (Captisol 15% w/v, CBZ source Spectrum): 6.9 mg/mL | Measured CBZ conc, Ave (Captisol 15% w/v): 7.0 mg/mL | Measured CBZ conc (Captisol 20% w/v, CBZ source Orgamol, listed as CBZ): 9.2 mg/mL and 10.3 mg/mL | Measured CBZ conc (Captisol 20% w/v, CBZ source Spectrum): 9.4 mg/mL | Measured CBZ conc, Ave (Captisol 20% w/v): 9.6 mg/mL | Measured CBZ conc (Captisol 25% w/v, CBZ source Orgamol, listed as CBZ): 11.4 mg/mL and 12.3 mg/mL | Measured CBZ conc (Captisol 25% w/v, CBZ source Spectrum): 11.8 mg/mL | Measured CBZ conc, Ave (Captisol 25% w/v): 11.8 mg/mL | Measured CBZ conc (Captisol 30% w/v, CBZ source Orgamol, listed as CBZ): 13.5 mg/mL and 15.2 mg/mL | Measured CBZ conc (Captisol 30% w/v, CBZ source Spectrum): 14.6 mg/mL | Measured CBZ conc, Ave (Captisol 30% w/v): 14.4 mg/mL | Measured CBZ conc (Captisol 35% w/v, CBZ source Orgamol, listed as CBZ): 15.9 mg/mL and 18.4 mg/mL | Measured CBZ conc (Captisol 35% w/v, CBZ source Spectrum): 16.3 mg/mL | Measured CBZ conc, Ave (Captisol 35% w/v): 16.9 mg/mL | Measured CBZ conc (Captisol 40% w/v, CBZ source Orgamol, listed as CBZ): 18.3 mg/mL and 20.8 mg/mL | Measured CBZ conc (Captisol 40% w/v, CBZ source Spectrum): 19.3 mg/mL | Measured CBZ conc, Ave (Captisol 40% w/v): 19.5 mg/mL | Measured CBZ conc (Captisol 45% w/v, CBZ source Orgamol, listed as CBZ): 20.6 mg/mL and 22.5 mg/mL | Measured CBZ conc (Captisol 45% w/v, CBZ source Spectrum): 21.8 mg/mL | Measured CBZ conc, Ave (Captisol 45% w/v): 21.6 mg/mL | Measured CBZ conc (Captisol 50% w/v, CBZ source Orgamol, listed as CBZ): 22.5 mg/mL and 24.8 mg/mL | Measured CBZ conc (Captisol 50% w/v, CBZ source Spectrum): 26.6 mg/mL | Measured CBZ conc, Ave (Captisol 50% w/v): 24.6 mg/mL | Measured CBZ conc (Cavitron 0% w/v, CBZ source Orgamol): 0.2 mg/mL | Measured CBZ conc (Cavitron 0% w/v, CBZ source Spectrum): 0.3 mg/mL | Measured CBZ conc (Cavitron 5% w/v, CBZ source Orgamol, listed as CBZ): 2.7 mg/mL and 3.0 mg/mL | Measured CBZ conc (Cavitron 5% w/v, CBZ source Spectrum): 3.8 mg/mL | Measured CBZ conc, Ave (Cavitron 5% w/v): 3.2 mg/mL | Measured CBZ conc (Cavitron 10% w/v, CBZ source Orgamol, listed as CBZ): 5.4 mg/mL and 5.6 mg/mL | Measured CBZ conc (Cavitron 10% w/v, CBZ source Spectrum): 4.1 mg/mL | Measured CBZ conc, Ave (Cavitron 10% w/v): 5.0 mg/mL | Measured CBZ conc (Cavitron 15% w/v, CBZ source Orgamol, listed as CBZ): 8.2 mg/mL and 8.4 mg/mL | Measured CBZ conc (Cavitron 15% w/v, CBZ source Spectrum): 12.3 mg/mL | Measured CBZ conc, Ave (Cavitron 15% w/v): 9.6 mg/mL | Measured CBZ conc (Cavitron 20% w/v, CBZ source Orgamol, listed as CBZ): 10.9 mg/mL and 11.1 mg/mL | Measured CBZ conc (Cavitron 20% w/v, CBZ source Spectrum): 16.4 mg/mL | Measured CBZ conc, Ave (Cavitron 20% w/v): 12.8 mg/mL | Measured CBZ conc (Cavitron 25% w/v, CBZ source Orgamol, listed as CBZ): 14.0 mg/mL and 14.3 mg/mL | Measured CBZ conc (Cavitron 25% w/v, CBZ source Spectrum): 14.8 mg/mL | Measured CBZ conc, Ave (Cavitron 25% w/v): 14.4 mg/mL | Measured CBZ conc (Cavitron 30% w/v, CBZ source Orgamol, listed as CBZ): 15.9 mg/mL and 16.2 mg/mL | Measured CBZ conc (Cavitron 30% w/v, CBZ source Spectrum): 17.9 mg/mL | Measured CBZ conc, Ave (Cavitron 30% w/v): 16.7 mg/mL | Measured CBZ conc (Cavitron 35% w/v, CBZ source Orgamol, listed as CBZ): 18.1 mg/mL and 19.9 mg/mL | Measured CBZ conc (Cavitron 35% w/v, CBZ source Spectrum): 20.7 mg/mL | Measured CBZ conc, Ave (Cavitron 35% w/v): 19.6 mg/mL
